Assay results published in paper PMC6692548, “Characterization of a phospholipid‐regulated β‐galactosidase from Akkermansia muciniphila involved in mucin degradation” (MicrobiologyOpen, 2019).

T1: Amuc_1686 (Akkermansia muciniphila, UniProt B2UM60)
T1 construct: GH35 beta-galactosidase with C-terminal truncated discoidin (F5/8 type C) domain; signal peptide removed (predicted cleavage between 17 and 18), N-terminal Strep-tag kept (pASK-IBA5), E. coli BL21(DE3); 87 kDa tagged (86 kDa encoded); monomer; primers start at codons AAPMPF and end in FKPAK-stop
T1 sequence (B2UM60 18-780): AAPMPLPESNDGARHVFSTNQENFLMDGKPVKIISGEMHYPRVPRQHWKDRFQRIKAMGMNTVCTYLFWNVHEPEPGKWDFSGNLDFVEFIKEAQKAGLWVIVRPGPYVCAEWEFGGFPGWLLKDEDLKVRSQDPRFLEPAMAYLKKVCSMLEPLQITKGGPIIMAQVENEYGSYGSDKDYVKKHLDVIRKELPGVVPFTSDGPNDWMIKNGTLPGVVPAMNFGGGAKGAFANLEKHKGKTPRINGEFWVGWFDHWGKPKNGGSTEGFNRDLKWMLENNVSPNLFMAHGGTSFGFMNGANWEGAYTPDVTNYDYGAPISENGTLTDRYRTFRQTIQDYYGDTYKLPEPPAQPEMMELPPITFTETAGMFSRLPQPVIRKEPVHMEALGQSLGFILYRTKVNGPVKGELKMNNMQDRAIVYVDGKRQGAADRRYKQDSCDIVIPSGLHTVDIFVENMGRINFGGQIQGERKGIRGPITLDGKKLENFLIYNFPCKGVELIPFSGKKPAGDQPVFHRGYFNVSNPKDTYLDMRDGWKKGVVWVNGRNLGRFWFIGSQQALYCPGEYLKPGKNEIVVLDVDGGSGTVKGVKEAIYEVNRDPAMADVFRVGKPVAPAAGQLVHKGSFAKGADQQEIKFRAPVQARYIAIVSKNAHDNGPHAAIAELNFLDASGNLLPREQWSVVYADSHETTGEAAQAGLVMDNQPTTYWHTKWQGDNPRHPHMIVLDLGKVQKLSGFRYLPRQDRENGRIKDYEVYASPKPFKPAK

T2: Amuc_1686_short (Akkermansia muciniphila, UniProt B2UM60)
T2 construct: gene Amuc_1686; signal peptide removed, last 107 amino acids (C-terminal discoidin domain) deleted; N-terminal Strep-tag (pASK-IBA5), E. coli BL21(DE3); primers start at codons AAPMPF and end in DNGPH-stop
T2 sequence (B2UM60 18-673): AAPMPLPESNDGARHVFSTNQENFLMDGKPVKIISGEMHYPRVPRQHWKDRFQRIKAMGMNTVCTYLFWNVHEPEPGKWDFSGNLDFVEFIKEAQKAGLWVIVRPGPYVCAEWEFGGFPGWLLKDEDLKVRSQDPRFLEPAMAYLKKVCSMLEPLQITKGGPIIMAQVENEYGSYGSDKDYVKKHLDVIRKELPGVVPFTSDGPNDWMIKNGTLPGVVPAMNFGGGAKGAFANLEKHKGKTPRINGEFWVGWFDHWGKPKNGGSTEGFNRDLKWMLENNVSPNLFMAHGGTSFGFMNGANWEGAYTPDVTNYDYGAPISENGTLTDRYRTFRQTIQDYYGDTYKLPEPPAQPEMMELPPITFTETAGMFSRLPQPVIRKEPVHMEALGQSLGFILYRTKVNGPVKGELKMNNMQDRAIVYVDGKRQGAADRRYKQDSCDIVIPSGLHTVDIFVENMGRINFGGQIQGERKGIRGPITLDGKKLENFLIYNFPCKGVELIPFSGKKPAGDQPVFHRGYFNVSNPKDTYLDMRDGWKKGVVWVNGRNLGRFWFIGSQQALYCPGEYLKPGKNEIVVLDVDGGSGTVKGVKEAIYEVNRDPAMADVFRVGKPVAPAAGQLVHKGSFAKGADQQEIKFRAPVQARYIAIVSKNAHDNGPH


How the values were obtained:
Amuc_1686 = target: T1, Amuc_1686; test: photometric 4-nitrophenol release; assay type: biochemical; conditions: 5 mM 4-nitrophenyl beta-D-galactopyranoside; 50 mM combined buffer pH 7.5, 37 °C; lipid added in methanol; non-competitive; acyl chains not given
Amuc_1686_short = target: T2, Amuc_1686_short; test: photometric 4-nitrophenol release; assay type: biochemical; conditions: 5 mM substrate; 50 mM combined buffer pH 7.5, 37 °C
purified protein = substrate: O=[N+]([O-])c1ccc(O[C@@H]2O[C@H](CO)[C@H](O)[C@H](O)[C@H]2O)cc1; test: purified protein; conditions: 50 mM combined buffer pH 7.5, 65 °C

Molecule | IC50 (Amuc_1686) | also measured
phosphatidylglycerol [PG] | 1 ± 0.1 µM | 
lysophosphatidic acid [LPA] | 13.6 ± 10.6 µM | 
phosphatidic acid [PA] | 4.3 ± 0.2 µM | 
O=[N+]([O-])c1ccc(O[C@@H]2O[C@H](CO)[C@H](O)[C@H](O)[C@H]2O)cc1 [para‐nitrophenyl‐β‐D‐galactopyranoside] |  | photometric 4-nitrophenol release (Amuc_1686_short): the shortened variant exhibited a slightly decreased enzymatic activity
phosphatidylserine [PS] | 29.3 ± 1.5 µM | 
Amuc_1686 (Akkermansia muciniphila ATCC BAA-835) (protein) AAPMPLPESNDGARHVFSTNQENFLMDGKPVKIISGEMHYPRVPRQHWKDRFQRIKAMGMNTVCTYLFWNVHEPEPGKWDFSGNLDFVEFIKEAQKAGLWVIVRPGPYVCAEWEFGGFPGWLLKDEDLKVRSQDPRFLEPAMAYLKKVCSMLEPLQITKGGPIIMAQVENEYGSYGSDKDYVKKHLDVIRKELPGVVPFTSDGPNDWMIKNGTLPGVVPAMNFGGGAKGAFANLEKHKGKTPRINGEFWVGWFDHWGKPKNGGSTEGFNRDLKWMLENNVSPNLFMAHGGTSFGFMNGANWEGAYTPDVTNYDYGAPISENGTLTDRYRTFRQTIQDYYGDTYKLPEPPAQPEMMELPPITFTETAGMFSRLPQPVIRKEPVHMEALGQSLGFILYRTKVNGPVKGELKMNNMQDRAIVYVDGKRQGAADRRYKQDSCDIVIPSGLHTVDIFVENMGRINFGGQIQGERKGIRGPITLDGKKLENFLIYNFPCKGVELIPFSGKKPAGDQPVFHRGYFNVSNPKDTYLDMRDGWKKGVVWVNGRNLGRFWFIGSQQALYCPGEYLKPGKNEIVVLDVDGGSGTVKGVKEAIYEVNRDPAMADVFRVGKPVAPAAGQLVHKGSFAKGADQQEIKFRAPVQARYIAIVSKNAHDNGPHAAIAELNFLDASGNLLPREQWSVVYADSHETTGEAAQAGLVMDNQPTTYWHTKWQGDNPRHPHMIVLDLGKVQKLSGFRYLPRQDRENGRIKDYEVYASPKPFKPAK |  | Km (purified protein): 500 ± 300 µM; kcat (purified protein): 530.3 ± 87.1 s⁻¹
